From patent publication EP2233566A1, “Generation of pancreatic progenitor cells” (Vrije Universiteit Brussel, priority 2009, dated 2010)

Tested on: human embryonic stem cells-derived definitive endoderm
Assay: Hepatic differentiation (AFP / albumin expression) of hES cell-derived definitive endoderm
Assay type: cell-based
Protocol: Cells were split in 4-well plates and differentiation performed in five stages as previously published (D'Amour et al. 2006 (supra); Table 2). Briefly, for DE induction 80% confluent cultures were washed with PBS and treated with 100 ng/ml Activin-A (RnD Systems) and 25 ng/ml Wnt3a (RnD Systems) for 24h in RPMI (Invitrogen) supplemented with antibiotics and Glutamax; then they were further treated with 100 ng/ml Activin-A in RPMI containing 0.2% FBS (PAA Laboratories) for 48h. PGT stage cells were treated with 50 ng/ml FGF10 (RnD Systems), 250 nM KAAD-Cyclopamine (Calbiochem) and 2% FBS in RPMI medium for 3 or 4 days. In the PFG stage (3-4 days), the medium was changed to DMEM supplemented with Glutamax, antibiotics, 1% B27 (Invitrogen), 2 µM retinoic acid (RA, Sigma), FGF10 and KAAD-Cyclopamine. […]
At each stage, cultures were washed with PBS, fixed for 10-15 min at room temperature in 4% formaldehyde and rinsed several times. […] Immunocytochemistry was performed for the detection of Hnf1B using a donkey horse radish peroxidase (HRP)-conjugated secondary antibody and detected by the ABC complex (Dako) as previously described in Mfopou et al. 2007 (Stem Cells 25: 1156-1165). […]

Cc1c[nH]c(/C=C2\C(=O)Nc3ccccc32)c1CCC(=O)O [SU5402]
albumin expression by the pancreas endoderm stage (SU5402 (250 nM) alone): attenuates albumin expression | reduced hepatic differentiation (SU5402 added in PGT and PFG stages (FGF signalling inhibition)): at least 50%
